Publication PMC11251039, “Harnessing cholesterol uptake of malaria parasites for therapeutic applications” (EMBO Molecular Medicine, 2024)
“And” between values parts separate entries of the source, which are not always exact repeats. Equal values may be shown once.

What was measured:
[1] = tested on: human hepatoma cells (Huh7); test: Human hepatoma viability assay (CellTiter-Blue); format: cell-based; conditions: for Huh7 viability, dose-response data points (Figure 3F): replicate data points
Protocol: Huh7 hepatoma viability assays were conducted in the same manner as the P. berghei assays, with metabolic capacity (indicating viability) measured with a fluorescence microplate reader after incubation with CellTiter-Blue® (Promega) for 3 h.
Appendix Fraser/Curtis et al. […]
Human Hepatoma Viability Assays:
The Huh7 hepatoma cell line (ATCC) was maintained under routine culture conditions in Dulbecco's Modified Eagle Medium (DMEM) containing 3.7 g/L NaHCO3 supplemented with 10% foetal bovine serum (FBS), 100 units/mL penicillin, and 100 μg/mL streptomycin at 37 °C in a humidified 5% CO2 incubator.
Viability assays were performed in parallel to the P. berghei growth inhibition. 10,000 Huh7 cells were seeded in 96-well and dark-sided microplates (Greiner Bio One) and cultured at 37°C, 5% CO2 and 80% humidity. The next day, the media was replaced with compounds or solvent controls (DMSO) serially diluted in culture media. Media was partially replaced with new drug dilutions over the following two days. After 48 hours, CellTiter-Blue® (Promega) was added according to the manufacturer’s instructions and incubated for 3 hours. Fluorescence intensity was measured with 530/25 ex and 590/20 em in a Synergy HTX plate reader (Agilent).

[2] = tested on: human foreskin fibroblasts (HFF); test: Human foreskin fibroblast growth inhibition assay (SYBR Safe); format: cell-based; conditions: 72 h
Protocol: HFF cell growth inhibition assays commenced by adding 5000 cells to each well of a 96-well plate. 10 µg/mL cycloheximide was used as a no-growth control. DNA replication (indicating growth) was measured at the specified time using SYBR Safe DNA Gel Stain (Invitrogen 33102) and a fluorescence microplate reader. […]
Human Foreskin Fibroblast Growth Inhibition Assays:
The HFF cell line was maintained under routine culture conditions in DMEM containing 3.7 g/L NaHCO3 supplemented with 10% v/v newborn calf serum (NCS), 50 units/mL penicillin, 50 μg/mL streptomycin, 10 μg/mL gentamicin, 0.25 μg/mL amphotericin B, and 0.2 mM L-glutamine at 37 °C in a humidified 5% CO2 incubator. […]
HFF cells were detached from a flask using 0.25% Trypsin with 0.2 g/L EDTA (Sigma T4049) and washed with culture media. Cells were incubated with a serial dilution of each compound, or media/DMSO alone. Cycloheximide at 10 µg/mL was used as a positive control to determine background fluorescence. Approximately 5 000 cells were seeded in each well. Plates were incubated at 37 °C for 72 hours (until reaching confluency) and the media was removed. Plates were transferred to a -18 °C freezer. Plates were thawed and SYBR Safe DNA Gel Stain (final concentration 1/10,000) diluted in lysis buffer (as above) was added. Fluorescence was read at 490 nm excitation/ 520 nm emission on a FLUOstar Optima fluorescence plate reader. […]

[3] = tested on: Toxoplasma gondii tachyzoites (RH strain); test: Toxoplasma growth inhibition assay (tdTomato fluorescence, in HFF cells); format: cell-based; conditions: Toxoplasma gondii, HFF, 72 h, read-out: IC50, T. gondii tachyzoite growth inhibition
Protocol: Fluorescence was measured daily with a fluorescence microplate reader for one week, and the background fluorescence from the time 0 reading was subtracted from all other measurements. […]
Toxoplasma Growth Inhibition Assays:
Growth inhibition was investigated as described previously (26). Fluorescent Toxoplasma gondii parasites were inoculated into an optical bottom 96-well plate containing confluent human foreskin fibroblast (HFF) host cells at a density of 2,000 parasites/well, with a serial dilution of each compound, or culture media/DMSO (0.1% v/v) alone. Plates were measured daily with a FluoStar Optima fluorescence plate reader at 540 nm excitation and 590 nm emission for one week, and the background fluorescence from the time 0 reading was subtracted from all other measurements. […]

[4] = tested on: P. falciparum stage III–IV gametocytes; test: P. falciparum gametocyte viability assay (MitoTracker, flow cytometry), stage III-IV; format: cell-based, Plasmodium falciparum; conditions: 48 h; for Gametocyte stage III-IV viability, percentage of control: replicate values, source data Fig. 2C
Protocol: Gametocyte assays commenced seven days (stage III–IV) or ten days (stage V) post-invasion. […]
Plasmodium falciparum Gametocyte Viability Assays:
Asexual P. falciparum parasites were induced to form gametocytes as described (21).
Synchronized trophozoite-stage parasites at 2% parasitaemia were incubated overnight and […]
haematocrit maintained at 4%. On the subsequent day (designated as day 0) of gametocytogenesis, the culture containing early ring-stage parasites was first purified by sorbitol synchronisation to remove asynchronous trophozoites, and passed through a magnetic field in a sterile MACS® column in a SuperMACSTM II magnet to remove remaining late-stage parasites or later-stage gametocytes (negative selection). The culture medium was supplemented with 50 mM N-acetyl-D-glucosamine to inhibit asexual parasite proliferation, and changed daily. Sorbitol treatment was performed on Day 1, 5, and 6 to further remove asexual parasites. Gametocytes were magnetically enriched (positive selection) in a sterile column with a SuperMACSTM II magnet and eluted in culture media with 50 mM N-acetyl-D-glucosamine. These gametocytes were incubated overnight at 37 °C under microaerophilic conditions, and purity was assessed by examination under a light microscope (400× […]
Gametocyte viability was assessed as described by Ridgway et al. (21) with modifications.
Compounds or solvent controls (DMSO) were serially diluted across 96-well plates in culture media supplemented with 50 mM N-acetyl-D-glucosamine. Culture media without compound was used as a negative control. […]
control to determine background gametocyte fluorescence. Stage III-IV gametocytes (Day 7) or stage V (day 10) gametocytes were concentrated and added to the plate with 200 µL per well. The plate was incubated for 48 hours at 37 °C under humid microaerophilic conditions.
Parasites were then stained with 500 nM MitoTrackerTM Deep Red FM and 5 μg/ml Hoechst […]
cytometer as described above. […]
excluded. Live (positive) and dead (negative) gametocytes were differentiated by […]
percentage of each was calculated. […]

[5] = 100.000000000 uM, listed as HJB8a53, 100 µM

For CC(C)OC(=O)CCC(=O)O[C@H]1CC[C@H]2[C@@H]3CC=C4C[C@@H](O)CC[C@]4(C)[C@H]3CC[C@]12C [C-17-link], the “Huh7 viability, dose-response data points (Figure 3F)” value (“Huh7 viability” below) ([1]; 0.015241580 uM, listed as HJB8a53, 0.0152416 µM) was 105.5 and 101.4 and 96.09 and 69.59 and 87 and 84.06 and 99.27 and 98.63 and 104.2, the “Huh7 viability” value ([1]; 0.045724740 uM, listed as HJB8a53, 0.0457247 µM) was 109.3 and 93.77 and 96.82 and 77.36 and 91.83 and 83.31 and 95.97 and 106.5 and 102.9 and the “Huh7 viability” value ([1]; 0.137174210 uM, listed as HJB8a53, 0.137174 µM) was 96.08 and 92.35 and 97.06 and 75.41 and 90.39 and 89.79 and 95.73 and 112.9 and 104.7. The “Huh7 viability” value ([1]; 0.411522630 uM, listed as HJB8a53, 0.411523 µM) was 96.93 and 97.72 and 96.92 and 63.65 and 105.3 and 104.5 and 106.5 and 105.9 and 105.2, the “Huh7 viability” value ([1]; 1.234567900 uM, listed as HJB8a53, 1.23457 µM) was 100.4 and 99.21 and 88.68 and 67.97 and 84.85 and 96.13 and 101.8 and 95.29 and 104.3 and the “Huh7 viability” value ([1]; 3.703703700 uM, listed as HJB8a53, 3.7037 µM) was 100.3 and 96.61 and 91.24 and 63.53 and 95.92 and 87.81 and 99.75 and 109.9 and 102.3. For the same molecule, the “Huh7 viability” value ([1]; 11.111111100 uM, listed as HJB8a53, 11.1111 µM) was 99.33 and 105.1 and 91.64 and 77.62 and 94.71 and 84.32 and 94.43 and 111.6 and 102.6, the “Huh7 viability” value ([1]; 33.333333300 uM, listed as HJB8a53, 33.3333 µM) was 96.9 and 100.5 and 93.64 and 75.36 and 80.99 and 87.75 and 88.68 and 89.18 and 95.7 and the “Huh7 viability” value [1, 5] was 79.4 and 72.92 and 76.08 and 55.81 and 65.46 and 66.75 and 56.01 and 61.1 and 53.13. For the same molecule, the “Cytotoxicity to human hepatoma cells” value ([1]; 48 h, up to 100 µM) was “only modest cytotoxicity at high concentrations (>30 µM)”, the IC50 ([1]; Homo sapiens, Huh-7, 48 h, read-out: IC50, human hepatoma inhibition (viability)) was > 100 µM and the “Inhibition of fibroblast growth” value ([2]; HFF) was “no notable inhibition”. The IC50 ([2]; Homo sapiens, Fibroblast, read-out: IC50, human fibroblast growth inhibition) was > 75 µM, the IC50 [3] was 24.2 µM and the “Gametocyte stage III-IV viability, percentage of control” value ([4]; 1.562500000 uM, listed as HJB8a53, 1.5625 µM) was 101% and 107% and 102.8% and 99.18% (2×) and 99.4% and 102.9% and 101.9% and 93.96% and 97.92% and 98.49%. The “Gametocyte stage III-IV viability, percentage of control” value ([4]; 3.125000000 uM, listed as HJB8a53, 3.125 µM) was 105.6% and 102% and 105.7% and 98.51% and 101.4% and 101.9% (2×) and 99.18% and 90.27% and 91.12% and 94.52%, the “Gametocyte stage III-IV viability, percentage of control” value ([4]; 6.250000000 uM, listed as HJB8a53, 6.25 µM) was 99.6% and 103.8% and 106.8% and 101.2% and 104.3% and 103.3% and 101% and 100.8% and 93.96% and 96.79% and 98.77% and the “Gametocyte stage III-IV viability, percentage of control” value ([4]; 12.500000000 uM, listed as HJB8a53, 12.5 µM) was 107.8% and 104% and 107.2% and 101.4% and 104.1% (2×) and 102.9% and 101% and 94.24% and 97.07% and 99.62%. The “Gametocyte stage III-IV viability, percentage of control” value ([4]; 25.000000000 uM, listed as HJB8a53, 25 µM) was 98.8% and 98.2% and 107.2% and 103.9% and 105.9% and 102.5% and 102.3% and 103.5% and 88.86% and 88.57% and 89.42%, the “Gametocyte stage III-IV viability, percentage of control” value ([4]; 50.000000000 uM, listed as HJB8a53, 50 µM) was 91.61% and 97.2% and 99.4% and 103.4% and 99.63% and 101% and 91.35% and 89.5% and 90.53% and 84.89% and 81.49% and 79.23% and the “Gametocyte stage III-IV viability, percentage of control” value [4, 5] was 87.57% and 87.36% and 83.7% and 97.18% and 90.82% and 86.32% and 9.91% and 5.752% and 9.494% and 21.99% and 34.89% and 34.32%. The viability at 1.5625 µM ([4]; Plasmodium falciparum, read-out: Gametocyte stage III-IV viability, percentage of control, 1.562500000 uM, 48 h, replicate values, source data Fig. 2C) was 94.6%, the viability at 3.125 µM ([4]; Plasmodium falciparum, read-out: Gametocyte stage III-IV viability, percentage of control, 3.125000000 uM, 48 h, replicate values, source data Fig. 2C) was 94.6% and the viability at 6.25 µM ([4]; Plasmodium falciparum, read-out: Gametocyte stage III-IV viability, percentage of control, 6.250000000 uM, 48 h, replicate values, source data Fig. 2C) was 98.6%. The viability at 12.5 µM ([4]; Plasmodium falciparum, read-out: Gametocyte stage III-IV viability, percentage of control, 12.500000000 uM, 48 h, replicate values, source data Fig. 2C) was 99.8%, the viability at 25 µM ([4]; Plasmodium falciparum, read-out: Gametocyte stage III-IV viability, percentage of control, 25.000000000 uM, 48 h, replicate values, source data Fig. 2C) was 92.6% and the IC50 ([4]; Plasmodium falciparum, read-out: IC50, P. falciparum gametocyte stage III-IV inhibition, 48 h) was > 100 µM.
